Measurements published in patent US11890292B2, “Compositions, methods, systems and/or kits for preventing and/or treating neoplasms” (Research Cancer Institute of America, priority 2017, dated 2024).

Key:
[1] = cited from earlier work
glioma cells = conditions: cited from earlier work
one or more cancers = conditions: cyclophosphamide only
Text: One or more patients are identified who have one or more cancers selected from lung carcinoma, prostate cancer, gliaoblastoma multiform, hormone refractory prostate cancer, solid tumor malignancies such as colon carcinoma, non-small cell lung cancer (NSCLC), anaplastic astrocytoma, bladder carcinoma, sarcoma, ovarian carcinoma, rectal hemangiopericytoma, pancreatic carcinoma, advanced cancer, cancer of large bowel, stomach, pancreas, ovaries, melanoma pancreatic cancer, colon cancer, and bladder cancer.
The one or more patients are administered a formulation comprising cyclophosphamide only. […] On the day of the next administration and prior to the administration, as assessment of the outcome of treatment until that point is conducted and compared to all previous assessments.
Patients are then administered a combination of cyclophosphamide and quercetin and SPB. […] An assessment of the outcome of treatment is periodically made.

Row | Compound | water solubility [1] | angiogenesis in glioma cells (glioma cells) | response of the cancers following the initial response period (one or more cancers)
1 | O=c1c(O)c(-c2ccc(O)c(O)c2)oc2cc(O)cc(O)c12 [Quercetin, quercetin] | not water soluble | suppression of angiogenesis | 
2 | O=P1(N(CCCl)CCCl)NCCCO1 (stereo not drawn) [cyclophosphamide] |  |  | become resistant
